In patent US8637528B2, “Use of PDE7 inhibitors for the treatment of movement disorders” (Omeros Corporation, priority 2007, dated 2014):
pIC50: −log10 of the molar value.

Experiments:
MPTP-treated mice = experiment: inked paw stride length in the MPTP mouse model of Parkinson's disease, initial study (Example 5); assay type: in vivo; settings: for effect on stride length of saline-treated mice, in words: 20 minutes after dosing
Procedure: (§1) Adult male C57BL/6J; retired breeders, aged between 7-9 months (Jackson Laboratory, Bar Harbor, Me., USA), singly housed.
Mice received 2 subcutaneous injections of methylphenyltetrahydropyridine (“MPTP”) at a dose of 15 mg/kg (free base) with a 10-12 hour interval between injections. Control mice (sham lesion groups) were administered saline instead of MPTP.
Seven days after MPTP or saline administration, OM69 was administered to mice. For each dose, a 100× stock of OM69 compound was prepared in 100% DMSO and subsequently diluted 100× into phosphate buffered saline (PBS). Then 100 μL of this 1× solution was administered via intraperitoneal (IP) injection.
Prior to injection with MPTP or saline, animals were pre-trained to walk across a clean sheet of paper into their home cage without stopping. For assessment of stride length, animals had their forepaws placed in black ink and the length of forepaw steps during normal walking (in a straight line only) was measured. The animals were immediately put back into their home cage upon completion of the task. Stride length was determined by measuring the distance between each step on the same side of the body, measuring from the middle toe of the first step to the heel of the second step. An average of at least four clear steps was calculated.
Retired breeder male mice (12-15 per group, ˜48-60 animals total) were treated with either saline or 2×15 mg/kg MPTP (12 saline; […]) to induce a Parkinsonian state (neurochemical loss of dopamine with corresponding behavioral deficits).
On day eight stride length was measured again, and the control value for stride length was derived from the stride length of saline-treated animals. Following this measurement the first treatments with L-dopa (5 mg/kg) or OM69 (0.1 mg/kg) were administered on day eight, as shown in FIG. 8. Stride length was then measured for each animal 20 minutes after dosing. […] Dosing with the treatments shown in FIG. 8 was carried out on successive days, with stride length measured 20 minutes after each dosing. As mentioned above, it was previously determined from pharmacokinetic studies that OM69 is washed out of the mice within 12 hours after dosing, so the stride length test carried out 20 minutes after dosing was believed to be measuring the effect of only the compounds administered on the day of treatment.
On day nine Group 1 animals were treated with L-dopa (1 mg/kg), and Group 2 animals were treated with OM69 (0.01 mg/kg). On day ten the treatment groups were crossed over, and Group 1 animals were treated with OM69 (0.01 mg/kg), and Group 2 animals were treated with L-dopa (1 mg/kg).
As further shown in FIG. 8, for the combination studies, all the mice in Group 1 and Group 2 were combined. On day 11 following MPTP administration, all the animals in Group 1 and Group 2 (n=9) were treated with the combination of L-dopa (1 mg/kg) and OM69 (0.01 mg/kg), with the stride length test carried out 20 minutes after dosing. On day 12 following MPTP administration, all the animals in Group 1 and Group 2 (n=9) were treated with the combination of L-dopa (1 mg/kg) and OM69 (0.03 mg/kg) with the stride length test carried out 20 minutes after dosing. In these combination studies carried out on day 11 and day 12, the average stride length data from two of the nine animals was not scorable because these two animals either ran rather than walking at a normal speed, or they kept starting and stopping rather than walking continuously. Therefore, these two animals were excluded, and only the remaining seven animals (n=7) were scored for the combination studies.
To assess and compare the effects of OM69 and L-dopa at these doses, data from mice with equivalent dosing was pooled. Thus, the average stride length for animals treated with L-dopa (1 mg/kg) was determined using measurements obtained from all nine animals. […]

PDE3A = PDE3A (Homo sapiens (Human), UniProt Q14432); experiment: PDE selectivity SPA assay, PDE3A; assay type: biochemical; settings: IC50 against PDE3A divided by IC50 against PDE7A
Sequence of PDE3A (Q14432 whole entry): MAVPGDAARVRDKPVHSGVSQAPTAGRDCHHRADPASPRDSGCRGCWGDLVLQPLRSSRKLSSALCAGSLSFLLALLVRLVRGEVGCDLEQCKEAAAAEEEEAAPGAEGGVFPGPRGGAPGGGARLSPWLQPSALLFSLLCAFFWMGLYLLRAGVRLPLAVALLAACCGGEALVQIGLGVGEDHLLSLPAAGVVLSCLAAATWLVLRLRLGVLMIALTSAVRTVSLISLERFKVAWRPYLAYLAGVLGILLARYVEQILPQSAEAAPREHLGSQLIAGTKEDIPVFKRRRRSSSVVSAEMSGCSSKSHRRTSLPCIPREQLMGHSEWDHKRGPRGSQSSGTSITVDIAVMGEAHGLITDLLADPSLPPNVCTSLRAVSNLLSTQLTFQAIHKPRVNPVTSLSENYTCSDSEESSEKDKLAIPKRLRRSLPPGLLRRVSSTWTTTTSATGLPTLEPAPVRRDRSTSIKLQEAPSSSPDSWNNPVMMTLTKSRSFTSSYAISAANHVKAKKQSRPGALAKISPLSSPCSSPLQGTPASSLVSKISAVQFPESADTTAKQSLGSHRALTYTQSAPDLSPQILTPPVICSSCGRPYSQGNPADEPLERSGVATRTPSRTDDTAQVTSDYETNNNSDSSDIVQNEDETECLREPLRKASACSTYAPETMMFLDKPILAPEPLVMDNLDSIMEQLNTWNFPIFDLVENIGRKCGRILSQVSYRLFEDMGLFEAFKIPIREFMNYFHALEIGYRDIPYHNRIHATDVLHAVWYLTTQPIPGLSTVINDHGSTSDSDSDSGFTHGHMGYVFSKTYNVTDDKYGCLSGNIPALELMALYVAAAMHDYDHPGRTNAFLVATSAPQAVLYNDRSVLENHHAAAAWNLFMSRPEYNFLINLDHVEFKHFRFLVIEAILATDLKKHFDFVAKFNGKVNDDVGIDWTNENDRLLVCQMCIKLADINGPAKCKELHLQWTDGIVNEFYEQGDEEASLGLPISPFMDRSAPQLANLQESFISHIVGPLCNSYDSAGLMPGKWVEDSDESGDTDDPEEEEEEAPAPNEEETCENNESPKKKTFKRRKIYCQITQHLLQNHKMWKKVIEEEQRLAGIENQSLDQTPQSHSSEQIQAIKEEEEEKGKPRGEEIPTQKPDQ

[1] = plasma and brain concentration in mice after intraperitoneal injection (LC/MS/MS); assay type: in vivo, mouse
Procedure: as §1
Just prior to the harvesting of tissues, mice were anesthetized with avertin. Samples of whole brain or plasma were collected from three animals per time point at 15 minutes, 30 minutes, 60 minutes, 120 minutes, and 240 minutes after injection. Blood samples were collected by retro-orbital bleeding. Plasma was prepared and red cells were removed by centrifugation. The mice were perfused with saline to remove contaminating blood. The brains were removed and rapidly frozen in liquid nitrogen for subsequent analysis. The plasma and brain samples were stored at −80° C. or on dry ice and the concentration of compound was determined by LC/MS/MS analysis as follows:
Whole brain tissue was homogenized using a Mini-Beaddeater-8™ (BioSpec Products, Bartlesville, Okla.). Plasma or homogenized brain samples were precipitated with acetonitrile and filtered in 96-well format using Captiva 0.20 micron filtration plates (Varian Corp, Lake Forest, Calif.). Filtrates were evaporated under nitrogen to dryness at 50° C. and were then reconstituted for LC-MS analysis.
Quantitative measurements for inhibitory compound in plasma and brain samples were obtained using a Thermo Ultra triple quadrupole mass spectrometer (Thermo Fisher Scientific, San Jose, Calif.), utilizing electrospray ionization in the multiple reaction monitoring mode of data acquisition. Sample extracts were injected onto a 2.1×30 mm packed Xterra C18-MS high pressure liquid chromatography (HPLC) column (Waters Corp, Milford, Mass.). The mobile phase eluting the compound from the HPLC column was applied using a Thermo Surveyor MS Plus HPLC quaternary pumping system (Thermo Fisher Scientific, San Jose, Calif.) and a HTC PAL autoinjector (LEAP Technologies, Chapel Hill, N.C.).

PDE7B = PDE7B (Homo sapiens (Human), UniProt Q9NP56); experiment: PDE7 phosphodiesterase scintillation proximity assay (SPA), PDE7B; assay type: biochemical; settings: for Fold Selectivity for PDE7A versus PDE7B: IC50 against PDE7B divided by IC50 against PDE7A; for 7A/7B Ratio: ratio of the PDE7B and PDE7A IC50 values; for selectivity for inhibition of the PDE7B enzyme as compared to the other PDEs: versus PDE1B, 2A, 3A, 4A, 5A, 8A, 9A, 10A, 11A
Sequence of PDE7B (Q9NP56 107-450 limits assumed): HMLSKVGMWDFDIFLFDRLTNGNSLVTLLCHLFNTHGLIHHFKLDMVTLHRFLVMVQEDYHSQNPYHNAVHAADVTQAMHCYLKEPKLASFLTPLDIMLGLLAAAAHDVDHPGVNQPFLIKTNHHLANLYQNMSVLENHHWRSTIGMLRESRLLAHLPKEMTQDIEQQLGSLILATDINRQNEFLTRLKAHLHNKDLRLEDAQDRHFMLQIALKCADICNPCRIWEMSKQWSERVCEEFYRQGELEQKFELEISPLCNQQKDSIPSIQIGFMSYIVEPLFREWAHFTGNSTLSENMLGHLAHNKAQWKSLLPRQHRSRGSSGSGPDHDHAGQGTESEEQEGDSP

PDE8A = PDE8A (Homo sapiens (Human), UniProt O60658); experiment: PDE selectivity SPA assay, PDE8A; assay type: biochemical; settings: IC50 against PDE8A divided by IC50 against PDE7A
Sequence of PDE8A (O60658 whole entry): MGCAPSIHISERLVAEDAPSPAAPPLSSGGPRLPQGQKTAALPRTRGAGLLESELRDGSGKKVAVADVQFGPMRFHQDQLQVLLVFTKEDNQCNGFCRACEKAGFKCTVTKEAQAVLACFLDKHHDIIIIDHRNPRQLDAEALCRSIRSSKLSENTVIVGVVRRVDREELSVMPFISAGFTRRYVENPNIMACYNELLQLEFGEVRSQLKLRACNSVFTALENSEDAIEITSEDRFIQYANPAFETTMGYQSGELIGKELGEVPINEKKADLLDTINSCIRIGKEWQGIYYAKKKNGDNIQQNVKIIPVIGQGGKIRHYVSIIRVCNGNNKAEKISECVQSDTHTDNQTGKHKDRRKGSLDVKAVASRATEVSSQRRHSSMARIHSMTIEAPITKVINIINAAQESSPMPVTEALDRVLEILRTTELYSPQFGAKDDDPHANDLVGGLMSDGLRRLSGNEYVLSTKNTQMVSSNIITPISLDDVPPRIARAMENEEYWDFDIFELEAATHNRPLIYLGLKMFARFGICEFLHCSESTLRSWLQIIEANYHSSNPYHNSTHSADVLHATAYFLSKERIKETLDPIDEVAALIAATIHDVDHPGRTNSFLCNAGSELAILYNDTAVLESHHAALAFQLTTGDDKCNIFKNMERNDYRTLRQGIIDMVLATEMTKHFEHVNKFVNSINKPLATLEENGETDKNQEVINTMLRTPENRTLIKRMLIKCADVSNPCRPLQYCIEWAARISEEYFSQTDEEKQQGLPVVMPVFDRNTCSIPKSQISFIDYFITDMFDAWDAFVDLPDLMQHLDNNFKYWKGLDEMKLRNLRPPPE

[2] = mouse, 1.0 mg/kg IP, 15 minutes
[3] = mouse, 1.0 mg/kg IP, 30 minutes post injection

Q: With `N[C@@H](Cc1ccc(O)c(O)c1)C(=O)O` [L-dopa, levodopa, reference compound] as the molecule, how does the “effect on stride length, in words” value (MPTP-treated mice; MPTP-treated mice, L-dopa 1 mg/kg) read?
A: Its value is “only a small effect”.

Q: And the “effect on stride length, in words” value (MPTP-treated mice; MPTP-treated mice, L-dopa 5 mg/kg)?
A: Its value is “fully restore the stride length to that seen without MPTP treatment”.

Q: What about the “dose dependence of the effect on stride length, in words” value (MPTP-treated mice; MPTP-treated mice, L-dopa 1 and 5 mg/kg) of the same molecule?
A: The value was “increases their stride length in a dose-dependent manner”.

Q: And the “effect on stride length of saline-treated mice, in words” value (MPTP-treated mice; L-dopa 5 mg/kg)?
A: Its value is “Neither L-dopa (5 mg/kg) nor OM69 (0.1 mg/kg) altered the stride length of saline-treated mice”.

Q: Which “Fold Selectivity for PDE7A versus PDE3A” value (PDE3A) does the source give for `O=C1Nc2c(Cl)ccc(OCCO)c2C2(CCCCC2)N1` [OM955] here?
A: The value was greater than 192 fold.

Q: What about the “maximal brain concentration at dose where efficacy was observed” value ([1]; mouse, at 0.5 mg/kg, analogous calculation) of the same molecule?
A: Its value is 292 nM.

Q: And the pIC50 (PDE7B)?
A: The pIC50 was 6.97.

Q: And the “potency of PDE7B inhibition, in words” value (PDE7B)?
A: The value was “moderate potency”.

Q: What about the “Fold Selectivity for PDE7A versus PDE7B” value (PDE7B) of the same molecule?
A: The value was 2.0 fold.

Q: What about the “7A/7B Ratio” value (PDE7B) of the same molecule?
A: The value was 2.05.

Q: And the “selectivity for inhibition of the PDE7B enzyme as compared to the other PDEs” value (PDE7B)?
A: Its value is “greater than 50 fold”.

Q: And the “Fold Selectivity for PDE7A versus PDE8A” value (PDE8A)?
A: Its value is greater than 192 fold.

Q: For `COc1cc(N)ccc1-c1cc2c(c(=O)[nH]1)C(C1CCCCC1)N=[N+]2C` (centres unmarked) [OM69], which “Fold Selectivity for PDE7A versus PDE3A” value (PDE3A) is on record?
A: Its value is 8170 fold.

Q: What about the brain tissue concentration [1, 2] of the same molecule?
A: Its brain tissue concentration is 25 ng/g.

Q: And the plasma concentration [1, 2]?
A: Its plasma concentration is 51 ng/g.

Q: And the peak brain level [1, 3]?
A: The peak brain level was 44 ng/g.

Q: And the peak plasma level [1, 3]?
A: Its peak plasma level is 59 ng/g.

Q: What about the “brain to plasma ratios” value ([1]; mouse, 1.0 mg/kg IP, all time points with levels above the lower limit of quantitation) of the same molecule?
A: The value was 45-75%.

Q: What about the “brain concentration converted to molar” value ([1]; mouse, 30 minutes after injection of a 1 mg/kg dose) of the same molecule?
A: Its value is 124 nM.

Q: And the “Ratio of Total Brain Exposure/Total Plasma Exposure” value ([1]; mouse, IP, AUC brain / AUC plasma, 1.0 mg/kg OM69, 10.0 mg/kg OM056, 30.0 mg/kg OM955 and OM956)?
A: The value was 0.78.

Q: What about the “expected maximal brain concentration” value ([1]; mouse, dose of 0.1 mg/kg, assuming linearity of uptake and uniform brain distribution) of the same molecule?
A: The value was 12.4 nM.

Q: What about the “time to wash out of mice” value ([1]; previously determined from pharmacokinetic studies) of the same molecule?
A: The value was no more than 12 h.

Q: What about the pIC50 (PDE7B) of the same molecule?
A: Its pIC50 is 8.32.

Q: And the “potency of PDE7B inhibition, in words” value (PDE7B)?
A: Its value is “high potency”.

Q: And the “Fold Selectivity for PDE7A versus PDE7B” value (PDE7B)?
A: The value was 3.7 fold.

Q: And the “7A/7B Ratio” value (PDE7B)?
A: Its value is 3.69.

Q: What about the “selectivity for inhibition of the PDE7B enzyme as compared to the other PDEs” value (PDE7B) of the same molecule?
A: Its value is 250 fold.

Q: What about the “Fold Selectivity for PDE7A versus PDE8A” value (PDE8A) of the same molecule?
A: The value was greater than 7700 fold.

Q: What about the “effect on stride length, in words” value (MPTP-treated mice; MPTP-treated mice, OM69 0.01 mg/kg) of the same molecule?
A: Its value is “only a small effect”.

Q: What about the “effect on stride length, in words” value (MPTP-treated mice; MPTP-treated mice, OM69 0.1 mg/kg IP) of the same molecule?
A: The value was “fully restore the stride length to that seen without MPTP treatment”.

Q: What about the “L-dopa dose with the same effect on stride length, relative to the OM69 dose” value (MPTP-treated mice; OM69 0.1 mg/kg IP versus L-dopa 5 mg/kg) of the same molecule?
A: Its value is 50 fold.

Q: What about the “effect on stride length of saline-treated mice, in words” value (MPTP-treated mice; OM69 0.1 mg/kg) of the same molecule?
A: Its value is “Neither L-dopa (5 mg/kg) nor OM69 (0.1 mg/kg) altered the stride length of saline-treated mice”.
